Data on six compounds can be found in ChEMBL document CHEMBL4765280, “Carvedilol serves as a novel CYP1B1 inhibitor, a systematic drug repurposing approach through structure-based virtual screening and experimental verification” (Eur J Med Chem, 2020).

The subject of one series is A549/Taxol. The series is described as follows: Cytotoxicity against human A549/Taxol cells assessed as reduction in cell viability after 72 hrs by MTT assay. The class given is functional, cell-based. The following applies: dose 5-10 µM. In general terms: Tetrazolium assays rely on reduction of a dye to a coloured formazan, in cell work by metabolically active cells.

Series [1] addresses T1, Cytochrome P450 1B1 (Homo sapiens, UniProt Q16678).
T1 sequence (Q16678 whole entry): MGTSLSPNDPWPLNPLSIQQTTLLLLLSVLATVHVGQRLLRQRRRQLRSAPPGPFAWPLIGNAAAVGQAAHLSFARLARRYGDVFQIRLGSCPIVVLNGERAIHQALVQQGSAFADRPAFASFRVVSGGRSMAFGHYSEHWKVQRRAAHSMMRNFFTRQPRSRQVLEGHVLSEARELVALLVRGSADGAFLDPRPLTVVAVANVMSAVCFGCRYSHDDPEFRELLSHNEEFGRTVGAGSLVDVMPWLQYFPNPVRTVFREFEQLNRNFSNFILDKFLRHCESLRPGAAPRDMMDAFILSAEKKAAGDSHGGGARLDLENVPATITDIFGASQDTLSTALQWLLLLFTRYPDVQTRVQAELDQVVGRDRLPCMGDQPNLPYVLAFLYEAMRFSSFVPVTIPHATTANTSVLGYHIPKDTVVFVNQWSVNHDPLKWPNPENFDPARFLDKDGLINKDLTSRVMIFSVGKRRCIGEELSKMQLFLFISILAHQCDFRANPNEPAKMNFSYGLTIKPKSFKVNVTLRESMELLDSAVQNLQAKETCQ
The series is described as follows: Inhibition of human CYP1B1 using 7-ethyl-O-resorufin as substrate incubated for 30 mins in presence of NADPH by EROD assay.

For the next series, the system named is A549. In words: Cytotoxicity against human A549 cells assessed as reduction in cell viability after 72 hrs by MTT assay. In kind it is functional, cell-based. The settings on record: dose 5-10 µM.
In series [2] the target is T1, Cytochrome P450 1B1. In words: Inhibition of human CYP1B1 at 5 uM using 7-ethyl-O-resorufin as substrate incubated for 30 mins in presence of NADPH by EROD assay. The following applies: 0.5 h.

As to `COc1ccccc1OCCNCC(O)COc1cccc2[nH]c3ccccc3c12` (stereo not given) [CARVEDILOL], the Activity entry in the series with A549/Taxol and in the series with A549 was “Dose-dependent effect” each time. In addition, the IC50 on Cytochrome P450 1B1 [1] came to 1.1 µM. The “inhibition (INH)” value on Cytochrome P450 1B1 [2] is reported as “Active”.
Consider `C#C[C@]1(O)CC[C@H]2[C@@H]3CCc4cc(O)ccc4[C@H]3CC[C@@]21C` [ETHINYL ESTRADIOL], for which the “inhibition (INH)” value on Cytochrome P450 1B1 [2] is recorded as “Not Active”.
The same measure, in the same setting: the entry for `CCN(CCO)CCCC(C)Nc1ccnc2cc(Cl)ccc12.O=S(=O)(O)O` (stereo not given) [HYDROXYCHLOROQUINE SULFATE] is “Not Active”.
As for `CCc1cc2c(cc1CC)CC(NC[C@H](O)c1ccc(O)c3[nH]c(=O)ccc13)C2` [INDACATEROL], the IC50 at Cytochrome P450 1B1 [1] was determined as 59.2 µM. The “inhibition (INH)” value on Cytochrome P450 1B1 [2] is “Active”.
With `CC(CCc1ccccc1)NCC(O)c1ccc(O)c(C(N)=O)c1` (stereo not given) [LABETALOL], the “inhibition (INH)” value on Cytochrome P450 1B1 [2] is “Not Active”.
Still for that read-out and setting: under `C=C[C@H]1C[N@@]2CC[C@H]1C[C@@H]2[C@@H](O)c1ccnc2ccc(OC)cc12` [QUINIDINE] stands “Not Active”.

For orientation: IC50 means the concentration that gives 50% inhibition.
